Holding throughout (assay type): physicochemical
Series [1] can be described thus: Solubility of salts in water and in 0.2 M phosphate buffer pH 6 at 37° C. after 4 hours (HPLC-DAD). The settings on record: for pH (4 h): pH at end of equilibration. How it is done: Two sets of solubility experiments were performed. […] In the second set of solubility experiments about 5 mg of the salt was weighed in a standard 1.8 mL HPLC vial. Subsequently, aliquots of 200 μL of aqueous medium were added up to a maximum of 1 mL, while making observations regarding the dissolution behavior of the salts. The vials were left to equilibrate at 37° C. with continuous stirring (see Table 25 for details). After 4 hours the solids were separated from the liquid by centrifugation and the liquid phase was further filtrated through a […] PTFE filter to remove any particulate matter. The concentration of solute was determined by HPLC-DAD analysis. A calibration curve was made from two independent stock solutions of voruciclib prepared in acetonitrile/water. The pH was recorded at the end of the equilibration time.

Series [2] in a line: Physical stability upon exposure to accelerated aging conditions (AAC, 40° C./75% RH), re-analysis by HT-XRPD. The settings on record: for Physical stability upon exposure to AAC: HT-XRPD before and after; for Solid forms Vacuum AAC: vacuum-dried solids after AAC (40° C./75% RH, 2 days).
Series [3] can be described thus: Physical stability of solid forms upon drying under vacuum, HT-XRPD. The settings on record: for Physical stability upon drying under deep/high vacuum: oxalate, phosphate, malonate forms, 5 mbar, 18 h; for Solid forms Vacuum: form after drying under deep vacuum (5 mbar, 18 h), HT-XRPD. As to the method: (§1) Amorphous voruciclib oxalate salt, generated by freeze-drying, was used to start the thermocycling experiments. Suspensions were prepared in the selected solvent systems at RT. Subsequently, the mixtures were subjected to a temperature profile. After the temperature profile, the solids were separated from the solutions by centrifugation and were dried at ambient conditions and under deep vacuum before being harvested and analyzed by HT-XRPD. The liquid phases were also dried under deep vacuum before being harvested and analyzed by HT-XRPD. All solids were exposed to AAC (40° C./75% RH, 2 days).
After the temperature profile, the solids were separated from the liquids by centrifugation and the solid phase was dried at ambient conditions and under deep vacuum (5 mbar) before being harvested and analyzed by HT-XRPD. The liquid phases were dried under deep vacuum (5 mbar) and the recovered solids were analyzed by HT-XRPD. All solids were then exposed to accelerated aging conditions (40° C./75% RH, 2 days) followed by HT-XRPD re-analysis.
as §1, with “voruciclib phosphate” for “voruciclib oxalate”, “profile. Upon completion of” for “profile. After”, “dried under” for “dried at”
After the temperature profile, the solids were separated from the liquids by centrifugation and the solid phase was dried under ambient conditions and under deep vacuum (5 mbar, 18 h) before being harvested and analyzed by HT-XRPD. The liquid phases were dried under deep vacuum (5 mbar, 18 h) and the recovered solids were analyzed by HT-XRPD. All solids were then exposed to accelerated aging conditions (40° C./75% RH, 2 days) followed by HT-XRPD re-analysis.
Amorphous voruciclib malonate salt, generated by freeze-drying, was used to start the thermocycling experiments. Suspensions were prepared in the selected solvent systems at RT and were subjected to three thermocycles between 50 and 5° C., followed by aging at 25° C. for 3 days. Upon completion of the aging time, the solids were separated from the liquids by centrifugation and they were dried at ambient conditions and under deep vacuum (5 mbar) before being harvested and analyzed by HT-XRPD.
After the temperature profile the solids were separated from the solution by centrifugation and they were dried at ambient conditions and under deep vacuum before being harvested and analyzed by HT-XRPD.

A short description of series [4]: Approximate solubility assessment of the free base by the solvent (aliquot) addition method. The settings on record: for Solubility in words / solubility: RT; for solubility: thermodynamic from solid. How it is done:
The approximate solubility of the free base was assessed in several organic solvents (Table 17) by the solvent addition method. To about 5 mg of free base, aliquots of solvent were added until complete dissolution was observed or until a concentration […] was reached. Aliquots of 100 μL were used up to 2 mL, followed by aliquots of 1 mL up to 8 mL. […] Based on the solubility results, in some embodiments the crystallization solvents selected for salt formation were THF, ethanol and acetone.
The solubility assessment was performed according to the aliquot addition method and visually assessed. About 5 mg of free base was weighed into 8 mL glass vials. Aliquots of 100 μL were added up to 2 mL, followed by aliquots of 1 mL up to 8 mL. The experimental conditions are described in Table 21.

Series [5] is described as follows: Thermal stability of the free base in solution (HPLC). The settings on record: for Area (HPLC): 1 h.
Setting [6] is: 0.2M phosphate buffer pH 6, 37° C., about 1 mg salt in 1 mL.
The mark [7] stands for this setting: 0.2M phosphate buffer pH 6, 37° C., about 5 mg salt in 1 mL.
[8] abbreviates: water, 37° C., about 1 mg salt in 1 mL.
Setting [9] is: water, 37° C., about 5 mg salt, up to 1 mL.
Where [10] appears, read: oxalate salt thermocycling, HT-XRPD.

Structures are written as SMILES. ≈ marks a conversion by molar mass, not a printed value. Entries after “also recorded” stand apart in the source; their conditions may differ. A value given as a limit tells only on which side of the number the result lay.

As to `CN1CC[C@@H](c2c(O)cc(O)c3c(=O)cc(-c4ccc(C(F)(F)F)cc4Cl)oc23)[C@@H]1CO.CN1CC[C@@H](c2c(O)cc(O)c3c(=O)cc(-c4ccc(C(F)(F)F)cc4Cl)oc23)[C@@H]1CO.O.O=C(O)C(=O)O` [Oxa1], the “Solubility in phosphate buffer” value in series [1] (0.2 M phosphate buffer pH 6, 37° C., 4 hours) worked out at 0.03 mg/mL. Also, the solubility (commonly how much of the substance goes into solution per volume) is 0.02 mg/mL in series [1] (0.2M phosphate buffer pH 6, 37° C., 4 hours, about 1 mg salt in 1 mL); 0.03 mg/mL in series [1] (0.2M phosphate buffer pH 6, 37° C., 4 hours, about 5 mg salt in 1 mL); “hazy” in series [1] (water, 37° C., 4 hours, about 1 mg salt in 1 mL); “hazy” in series [1] (water, 37° C., 4 hours, about 5 mg salt, up to 1 mL). The “Solids recovered / salt dissociation after solubility determination in buffer” value in series [1] (0.2 M phosphate buffer pH 6, 37° C., 4 hours, XRPD) was “The salt had dissociated in the buffer”. The “Form (4 h) of residual solid” value in series [1] (setting [6]) is given as “Am”; in series [1] (setting [7]), “Free”; in series [1] (setting [8]) it was “Free”; in series [1] (setting [9]), “Oxa1”. Besides, the “pH (4 h)” value in series [1] (setting [6]) is 6.0; in series [1] (setting [7]), 5.8; in series [1] (setting [8]) it was 4.4; in series [1] (setting [9]), 4.3. Also, the “Solids recovered after solubility determination in water” value in series [1] (water, 37° C., 4 hours, XRPD) was “The residual solids of the suspension were identical to Oxa1”. In addition, the “Physical stability upon exposure to AAC” value in series [2] (40° C./75% RH, 2 days) was “stable when exposed to advanced aging conditions; also recorded: physically stable under short term stress conditions; also recorded: physically stable upon exposure to AAC for two days; also recorded: remained stable upon exposure to AAC”. Further, the “Stability AAC” value in series [2] (oxalate salt cooling crystallization solids, AAC (40° C./75% RH, 1 day)) is “Stable”. Besides, in series [2] (setting [10]), the “Solid forms Vacuum AAC” value is given as “Oxa1”. Moreover, the “Solid phase AAC (XRPD form after accelerated aging)” value in series [2] (precipitated solids of the salt screen, dried under vacuum at 50° C., 40° C./75% RH for 2 days, HT-XRPD) is “Oxa1”. Moreover, in series [2] (salt screen solids, 40° C./75% RH, 2 days), the “Stable during AAC” value is given as “Yes”. Further, in series [3] (oxalate salt cooling crystallization, form after drying under deep vacuum (5 mbar), label = ambient-dried form), the Vacuum result is reported as “Oxa1”. The “Physical stability upon drying under deep/high vacuum” value in series [3] is “physically stable”.
As for `CN1CCC(c2c(O)cc(O)c3c(=O)cc(-c4ccc(C(F)(F)F)cc4Cl)oc23)C1CO.O=C(O)C(=O)O` (stereo not drawn) [Oxa2 + peaks], the “Solid forms Ambient AAC” value in series [2] (oxalate salt thermocycling, ambient-dried solids after AAC (40° C./75% RH, 2 days), HT-XRPD) was “Oxa2 + peaks”. Besides, in series [2] (setting [10]), the “Solid forms Vacuum AAC” value is “Oxa2 + peaks”. In addition, the “Solid forms Vacuum” value in series [3] (oxalate salt thermocycling solids, label = ambient-dried form) is “Oxa2 + peaks”.
In the case of `CN1CCC(c2c(O)cc(O)c3c(=O)cc(-c4ccc(C(F)(F)F)cc4Cl)oc23)C1CO.O=P(O)(O)O` (stereo not drawn) [Pho7], the “Physical stability upon exposure to AAC” value in series [2] (40° C./75% RH, 2 days) is on record as “additional diffraction peaks were observed; also recorded: unstable upon exposure to AAC”. In addition, in series [3], the “Physical stability upon drying under deep/high vacuum” value was “remained physically stable”. Also, the “Solid forms Vacuum” value in series [3] (phosphate salt thermocycling solids, label = ambient-dried form) is reported as “Pho7”.
`CN1CC[C@@H](c2c(O)cc(O)c3c(=O)cc(-c4ccc(C(F)(F)F)cc4Cl)oc23)[C@@H]1CO` [Voruciclib, (+)-trans-2-(2-chloro-4-trifluoromethylphenyl)-5,7-dihydroxy-8-(2-hydroxymethyl-1-methylpyrrolidin-3-yl)-chromen-4-one]: the “Solubility pH 6” value in series [1] (0.2M phosphate buffer (pH 6), 37° C., 4 hours, listed as Voruciclib Free base) came to 0.01 mg/mL. Also, the Solubility water in series [1] (water, 37° C., 4 hours, listed as Voruciclib Free base) is less than 0.01 mg/mL. The Solubility (as a rule, how much of the substance goes into solution per volume) at RT is approximately 1 mg/mL (≈ 2.13 mM) in series [4] (1,4-Dioxane); approximately 8 mg/mL (≈ 17 mM) in series [4] (2-Propanol); approximately 5 mg/mL (≈ 10.6 mM) in series [4] (Acetonitrile); approximately 5 mg/mL (≈ 10.6 mM) in series [4] (Chloroform); approximately 1 mg/mL (≈ 2.13 mM) in series [4] (Ethyl acetate); less than 1 mg/mL in series [4] (Water). For the same compound, the Solubility in words result is on record as “soluble” in series [4] (THF); “sparingly soluble” in series [4] (methanol, ethanol and acetone); “practically insoluble” in series [4] (water). Further, the solubility was approximately 1000 µg/mL (≈ 2.13 mM) in series [4] (organic solvent or mixture, 1,4-Dioxane, approximate, solvent addition, read-out: Solubility); approximately 8000 µg/mL (≈ 17 mM) in series [4] (organic solvent or mixture, 2-Propanol, approximate, solvent addition, read-out: Solubility); 10000 to 13000 µg/mL (≈ 21.3 to 27.7 mM) in series [4] (organic solvent or mixture, Acetone, approximate, solvent addition, read-out: Solubility); approximately 5000 µg/mL (≈ 10.6 mM) in series [4] (organic solvent or mixture, Acetonitrile, approximate, solvent addition, read-out: Solubility); approximately 5000 µg/mL (≈ 10.6 mM) in series [4] (organic solvent or mixture, Chloroform, approximate, solvent addition, read-out: Solubility); 14000 to 18000 µg/mL (≈ 29.8 to 38.3 mM) in series [4] (organic solvent or mixture, Ethanol, approximate, solvent addition, read-out: Solubility). The solubility is approximately 1000 µg/mL (≈ 2.13 mM) in series [4] (organic solvent or mixture, Ethyl acetate, approximate, solvent addition, read-out: Solubility); 17000 to 26000 µg/mL (≈ 36.2 to 55.3 mM) in series [4] (organic solvent or mixture, Methanol, approximate, solvent addition, read-out: Solubility); 30000 to 60000 µg/mL (≈ 63.9 to 128 mM) in series [4] (organic solvent or mixture, Tetrahydrofuran, approximate, solvent addition, read-out: Solubility); less than 10000 µg/mL in series [4] (organic solvent or mixture, solvents other than THF, methanol, ethanol, acetone, read-out: Solubility in other solvents); less than 1000 µg/mL in series [4] (Water, approximate, solvent addition, read-out: Solubility). Also, the “Area (HPLC)” value amounted to 1562.10 mAu*s in series [5] (Acetone solution, 25° C.); 1566.22 mAu*s in series [5] (Acetone solution, 50° C.); 1566.56 mAu*s in series [5] (Acetone solution, 80° C.); 1633.32 mAu*s in series [5] (Ethanol solution, 25° C.); 1625.98 mAu*s in series [5] (Ethanol solution, 50° C.); 1625.83 mAu*s in series [5] (Ethanol solution, 80° C.). Moreover, the “Area (HPLC)” value in series [5] (Tetrahydrofuran solution, 25° C.) worked out at 1697.99 mAu*s; in series [5] (Tetrahydrofuran solution, 50° C.), 1713.96 mAu*s; in series [5] (Tetrahydrofuran solution, 80° C.), 1701.15 mAu*s. In addition, in series [5] (THF, ethanol, acetone solutions, RT 24 h, 50° C. and 80° C. 1 h, HPLC purity), the “Thermal stability in solution” value is reported as “thermally stable in solution”.

The record behind these values is patent US12421216B2, “Voruciclib polymorphs and methods of making and using thereof” (MEI PHARMA, INC., priority 2019, dated 2025).
